Ends that are not written are not given here.
How the values were obtained:
Format in all cases: cell-based, Staphylococcus pseudintermedius
MRSP E104 = test: High-throughput growth curves (BioScreen); settings: growth curve analysis
Procedure: The effects of B1 on the growth of a reference MRSP strain (ST71, E104) were evaluated using BioScreen (Oy Growth Curves Ab LTd, Finland). A well characterized antimicrobial peptide, Nisin, was used as a positive control. […] The OD600 of each micro-culture was measured and recorded every 15 min after a 5 second pause of shaking in automatic mode. The recorded ODs were plotted against time to prepare the growth curves. The assay was performed with technical and biological replicates, and one representative result was presented.

[1] = system: DNA synthesis in MRSP E104; test: Macromolecule biosynthesis rate, DNA (3H-Thymidine); settings: MRSP E104, 1.25 µg/ml, 20 min
Procedure: (§1) Macromolecule biosynthesis rate was measured in MRSP E104 following a protocol adapted from Ling et al.[65]. Briefly, E104 overnight culture was sub-cultured 1:100 in MHB II and grown up to OD 0.2 at 600 nm. Cells were pelleted down by centrifugation and resuspended in fresh medium followed by incubation for 20 min with B1 or nisin at 1.5 µg/ml and 1.25 µg/ml, respectively, and radiolabeled precursor: (50µCi) 3H-Thymidine (PerkinElmer) and (5µCi) 3H-glucosamine hydrochloride per ml for DNA and cell wall, respectively. A positive control without antimicrobial was maintained. After incubation, samples were precipitated with equal volume of cold 30% TCA (Sigma) on ice. Precipitates were filtered on a membrane filter and subsequently subjected to two washes of cold 15% TCA and two washes of cold water using vacuum manifold. Subsequently, filters were air dried overnight and then transferred to 10 ml scintillation vials. Finally, scintillation fluid (3 ml) was added to each vial and ^3H count was taken in Beckman Coulter LS6500 liquid scintillation counter for one minute. The radioactive counts of the control samples were considered to have 100% precursor incorporation and macromolecule synthesis. The percentage rates of the antimicrobial-exposed samples were calculated accordingly. Each experiment was performed with replicates and the average rates of incorporation were plotted.

[2] = system: cell wall synthesis in MRSP E104; test: Macromolecule biosynthesis rate, cell wall (3H-glucosamine); settings: MRSP E104, 1.25 µg/ml, 20 min
Procedure: as §1

[3] = system: membrane potential of MRSP E104; test: DiSC3(5) fluorescence-based membrane potential study; settings: MRSP E104, nisin treatment
Procedure: Freshly sub-cultured E104 cells were labelled with 1 µM 3,3-Dipropylthiadicarbocyanine iodide [DiSC3(5)] (Sigma) in MHB II. The fluorescence spectra of labelled cells were plotted in the LS50B luminescence spectrometer (PerkinElmer) at excitation/emission wavelengths 546 nm/573 nm using time drive application of FLWINLAB software. After reading an initial stable emission spectra of DiSC3(5), labelled cells were treated with B1 or nisin or protonophore CCCP at 1, 1.5 and 1.25 µg/ml, respectively and the change of fluorescence over time was recorded. The increment of DiSC3(5) fluorescence upon addition of antimicrobials or CCCP (FUafter-treatment – FUbefore-treatment) was plotted. This experiment was performed twice and each time with two technical replicates.

In the case of “nisin (ITSISLCTPGCKTGALMGCNMKTATCHCSIHVSK; not fully specified (some residues, bridges); cysteine pairing not given here; also: lantibiotic nisin-A (post-translational modifications not given here); UniProt P13068 24-57, looked up) [well-characterized antimicrobial peptide used as control, reference compound]”, the “MIC concentration (cell lysis) MRSP E104” value (MRSP E104) is reported as 5 µg/mL, the “inhibition of DNA synthesis” value [1] is reported as 50% and the “inhibition of cell wall synthesis” value [2] is reported as 60%. The “membrane potential, DiSC3(5) fluorescence emission” value [3] was “no fluorescence increment”.
